Test results as given in publication PMC1884159, “The crystal structure of Escherichia coli TdcF, a member of the highly conserved YjgF/YER057c/UK114 family” (BMC Structural Biology, 2007).

Tests used:
TdcF [1] = target: T1, TdcF (Escherichia coli, UniProt P0AGL2); test: X-ray crystal structure, crystal soak; format: binding; settings: 1 mM soak, 2 h, pH 8
T1 construct: recombinant, N-terminal His-tag not cleaved; homotrimer, 14 kDa subunits; ligand sites at subunit interfaces; Cys-36 seen as cysteine sulfonic acid in crystals

TdcF [2] = target: T1, TdcF; test: X-ray crystal structure, no ligand added (as isolated); format: binding; settings: 1.6 Å; inter-subunit site C only; putative identity from density, threonine an alternative

T1 sequence (P0AGL2 whole entry): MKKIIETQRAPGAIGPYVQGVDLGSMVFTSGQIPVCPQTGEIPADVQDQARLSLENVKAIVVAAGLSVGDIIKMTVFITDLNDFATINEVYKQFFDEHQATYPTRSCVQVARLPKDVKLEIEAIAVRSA

CCC(=O)O [PPI, propionate]
X-ray crystal structure, crystal soak (TdcF [1]; 2.45 Å, inter-subunit sites B and C occupied): a propionate molecule could be placed with confidence in both

N[C@@H](CO)C(=O)O [SER, serine]
X-ray crystal structure, no ligand added (as isolated) (TdcF [2]): with serine as the ligand with its side-chain in two alternative conformations of equal occupancy

CCC(=O)C(=O)O [2KT, 2-ketobutyrate]
X-ray crystal structure, crystal soak (TdcF [1]; 1.6 Å, inter-subunit sites A, B and C occupied): clear density for a 2-ketobutyrate ligand in each of the three binding sites
